Data taken from PMC10469688, “Comparative pharmacokinetics and safety evaluation of high dosage regimens of Andrographis paniculata aqueous extract after single and multiple oral administration in healthy participants” (Frontiers in Pharmacology, 2023).
Like-named read-outs stand apart in the source and are kept apart here. Each block holds one compound with its values, some of them ahead of it.

Tests used:
[1] = Plasma pharmacokinetics after single and multiple oral administration of A. paniculata aqueous extract capsules in healthy participants (HPLC-MS/MS, non-compartmental analysis); type: in vivo, human; design: MRT: unit: h; Cmax: unit: ng/mL
Description: (§1) An opened-label, two-dosage, single- and multiple-oral dosing, single center, phase I safety and pharmacokinetic study was conducted in healthy participants while they were under a fasting condition. […] Two weeks prior to the beginning of the clinical study, the volunteers were advised to abstain from other dietary supplements, herbal products, or any concomitant medicines. During the period of the study, no other medications were allowed. All participants fasted overnight for at least 8 h before drug administration. The study conducted a single-dose investigation on day 1 by oral administering A. paniculata extract capsules once in both groups. Twelve participants in group 1 received 3 capsules orally (equivalent to 60 mg of andrographolide) with 240 mL of water, while another twelve participants in group 2 received 6 capsules (equivalent to 120 mg of andrographolide). This was followed by serial blood sampling for up to 24 h after dosing. For blood collection, 6 mL of venous blood in EDTA tube was collected via a forearm vein catheter at each time point including pre-dose (0 h), and post-dose after oral administration (T 0.167, 0.333, 0.5, 0.75, 1, 1.5, 2, 4, 6, 8, 10, 12 and 24 h). Subsequently, observation of elimination continued until 48 h post-dose to ensure complete excretion of the major active diterpenoids through urine. Urine samples were collected at day 0 (the day prior to dosing) and day 1–2 (T 0–4, 4–8, 8–12,12–24, 24–32, 32–40, and 40–48 h after dosing). The study then proceeded to investigate multiple doses in both groups by administering continuous oral doses from day 3 until the morning of day 5. (dosing at T48, 56, 64, 72, 80, 88, and 96 h). In group 1, three capsules were administered orally before meals, three times a day (3 × 3 capsules at 8-h intervals, calculated as 180 mg/day of andrographolide); whereas in group 2, six capsules were administered daily, three times a day (6 × 3 capsules at 8-h intervals, calculated as 360 mg/day of andrographolide). For serial blood sampling of multiple doses, 6 mL of blood samples were collected starting in the morning of day 5 (sampling timepoints T 96, 96.167, 96.333, 96.5, 96.75, 97, 97.5, 98, 100, 102, and 104 h post dose).
(§2) All collected blood samples were centrifuged at 4,000 rpm, 4^οC, for 5 min. Plasma was collected and stored in cryotubes at −70^οC until analysis. Urine was kept as 10 mL aliquot samples at each time point and stored at −70^οC until analysis. Extraction was performed by protein precipitation method as previously reported ([Songvut et al., 2023]). Briefly, 50 µL of either a plasma or urine sample was mixed with 200 µL of methanol containing an internal standard (IS) of digoxin (50 ng/mL). Pretreated samples were vortexed for 10 min and were then centrifuged at 12,000 rpm, 4°C, for 10 min. The supernatants were filtered through a 0.2 µm PVDF membrane and were subsequently transferred to vials for HPLC-MS/MS analysis.
(§3) Hydrolysis of the glucuronidated and sulfated conjugates was conducted by enzymatic incubation as our previous published method ([Songvut et al., 2023]). To analyze the metabolic conjugations, 50 μL of either a plasma or urine sample was pre-incubated at 37^οC with 50 µL of either of β-glucuronidase in sodium phosphate buffer (pH 6.8) for 30 min, or sulfatase in sodium acetate buffer (pH 5) for 2 h. IS (50 ng/mL) was then added along with 150 μL of methanol to precipitate protein. The extracted samples were then vortexed and centrifuged at 12,000 rpm, 4^οC, for 10 min. The supernatants were collected by filtering through a 0.2-µm PVDF membrane before HPLC-MS/MS injection.
(§4) Analysis for the concentrations of targeted compounds in plasma and urine samples were carried out using HPLC-MS/MS at the Laboratory of Pharmacology, Chulabhorn Research Institute, Bangkok, Thailand. The quantitative determination was performed according to a previously validated method ([Songvut et al., 2023]). […]

[2] = Cumulative urinary excretion after single oral administration of A. paniculata aqueous extract capsules in healthy participants; type: in vivo, human; details: urine T 0–48 h
Description: as §1, §2, §3, §4

[3] = single oral dose equivalent to 60 mg andrographolide, n = 12, mean ± SD
[4] = single oral dose equivalent to 120 mg andrographolide, n = 11, mean ± SD
[5] = multiple oral doses 60 mg × 3 times/day of andrographolide, n = 12, mean ± SD
[6] = multiple oral doses 60 mg × 3 times/day of andrographolide, n = 12, median [IQR]
[7] = multiple oral doses 120 mg × 3 times/day of andrographolide, n = 11, mean ± SD
[8] = multiple oral doses 120 mg × 3 times/day of andrographolide, n = 11, median [IQR]
[9] = single oral dose equivalent to 60 mg andrographolide, n = 12, median [IQR]
[10] = single oral dose equivalent to 120 mg andrographolide, n = 11, median [IQR]

- CL/F ([1]; human, plasma, multiple oral doses 60 mg × 3 times/day of andrographolide, n = 12, mean ± SD): 255 mL/min/kg
- AUC(0-t) ([1]; human, plasma, multiple oral doses 60 mg × 3 times/day of andrographolide, n = 12, mean ± SD, read-out: AUC(0–8h)): 11.3 ± 3.3 ng·h/mL
- MRT ([1]; human, plasma, multiple oral doses 60 mg × 3 times/day of andrographolide, n = 12, mean ± SD, read-out: MRT): 1.5 ± 0.11 h
- Vd/F ([1]; human, plasma, multiple oral doses 60 mg × 3 times/day of andrographolide, n = 12, mean ± SD, read-out: Vd/F): 5.4 ± 3.1 L/kg
- half-life ([1]; human, plasma, multiple oral doses 60 mg × 3 times/day of andrographolide, n = 12, median [IQR]): 0.23 h
- Tmax ([1]; human, plasma, multiple oral doses 60 mg × 3 times/day of andrographolide, n = 12, median [IQR], read-out: Tmax): 1 h
- CL/F ([1]; human, plasma, multiple oral doses 120 mg × 3 times/day of andrographolide, n = 11, mean ± SD): 302 mL/min/kg
- AUC(0-t) ([1]; human, plasma, multiple oral doses 120 mg × 3 times/day of andrographolide, n = 11, mean ± SD, read-out: AUC(0–8h)): 20 ± 9.1 ng·h/mL
- MRT ([1]; human, plasma, multiple oral doses 120 mg × 3 times/day of andrographolide, n = 11, mean ± SD, read-out: MRT): 1.6 ± 0.07 h
- Vd/F ([1]; human, plasma, multiple oral doses 120 mg × 3 times/day of andrographolide, n = 11, mean ± SD, read-out: Vd/F): 5.7 ± 2.8 L/kg
- half-life ([1]; human, plasma, multiple oral doses 120 mg × 3 times/day of andrographolide, n = 11, median [IQR]): 0.21 h
- Tmax ([1]; human, plasma, multiple oral doses 120 mg × 3 times/day of andrographolide, n = 11, median [IQR], read-out: Tmax): 1 h
- Tmax ([1]; human, plasma, single oral dose equivalent to 60 mg andrographolide, n = 12, median [IQR], read-out: Tmax): 1 h
- CL/F ([1]; human, plasma, single oral dose equivalent to 120 mg andrographolide, n = 11, mean ± SD): 293 mL/min/kg
- AUC(0-inf) ([1]; human, plasma, single oral dose equivalent to 120 mg andrographolide, n = 11, mean ± SD, read-out: AUC(0-inf)): 20.5 ± 8.8 ng·h/mL
- AUC(0-t) ([1]; human, plasma, single oral dose equivalent to 120 mg andrographolide, n = 11, mean ± SD, read-out: AUC(0–24h)): 20.5 ± 8.8 ng·h/mL
- MRT ([1]; human, plasma, single oral dose equivalent to 120 mg andrographolide, n = 11, mean ± SD, read-out: MRT): 1.5 ± 0.08 h
- Vd/F ([1]; human, plasma, single oral dose equivalent to 120 mg andrographolide, n = 11, mean ± SD, read-out: Vd/F): 5.5 ± 2.9 L/kg
- half-life ([1]; human, plasma, single oral dose equivalent to 120 mg andrographolide, n = 11, median [IQR]): 0.21 h
- Tmax ([1]; human, plasma, single oral dose equivalent to 120 mg andrographolide, n = 11, median [IQR], read-out: Tmax): 1 h
- Cmax ([1]; human, multiple oral doses 60 mg × 3 times/day of andrographolide, plasma T 0–8 h, n = 12, mean ± SD, read-out: Cmax): 6.6 ± 1.9 ng/mL
- Cmax ([1]; human, multiple oral doses 120 mg × 3 times/day of andrographolide, plasma T 0–8 h, n = 11, mean ± SD, read-out: Cmax): 11.3 ± 5.5 ng/mL
- Cmax ([1]; human, single oral dose equivalent to 60 mg andrographolide, plasma T 0–24 h, n = 12, mean ± SD, read-out: Cmax): 4.2 ± 3.4 ng/mL
- Cmax ([1]; human, single oral dose equivalent to 120 mg andrographolide, plasma T 0–24 h, n = 11, mean ± SD, read-out: Cmax): 11.6 ± 5.4 ng/mL
- Cumulative urine [2, 3]: 108 ± 36.5 µg
- Cumulative urine [2, 4]: 199 ± 77.3 µg
SMILES: C=C1CC[C@@H]2[C@](C)(CO)[C@H](O)CC[C@@]2(C)[C@@H]1CCC1=CCOC1=O [14-Deoxyandrographolide, 14-deoxyandrographolide]

- AUC(0–8h) [1, 5]: 329 ± 55.5 ng·h/mL
- Cl/F [1, 5]: 16.3 ± 3.83 mL/min/kg
- MRT [1, 5]: 3.0 ± 0.61 h
- Vd/F [1, 5]: 2.6 ± 1.8 L/kg
- Half life [1, 6]: 1.6[0.80] h
- Tmax [1, 6]: 1.0[0.20] h
- Cmax ([1]; multiple oral doses 60 mg × 3 times/day of andrographolide, plasma T 0–8 h, n = 12, mean ± SD): 137 ± 29.3 ng/mL
- AUC(0–8h) [1, 7]: 693 ± 165 ng·h/mL
- Cl/F [1, 7]: 14.2 ± 2.33 mL/min/kg
- MRT [1, 7]: 4.5 ± 1.2 h
- Vd/F [1, 7]: 4.4 ± 2.0 L/kg
- Half life [1, 8]: 3.0[1.5] h
- Tmax [1, 8]: 1.0[0.33] h
- Cmax ([1]; multiple oral doses 120 mg × 3 times/day of andrographolide, plasma T 0–8 h, n = 11, mean ± SD): 237 ± 41.4 ng/mL
- AUC(0-inf) [1, 3]: 328 ± 102 ng·h/mL
- AUC(0–24h) [1, 3]: 328 ± 102 ng·h/mL
- Cl/F [1, 3]: 18.3 ± 4.5 mL/min/kg
- MRT [1, 3]: 4.3 ± 0.44 h
- Vd/F [1, 3]: 2.1 ± 0.60 L/kg
- Half life [1, 9]: 1.4[0.07] h
- Tmax [1, 9]: 1.0[0.33] h
- Cmax ([1]; single oral dose equivalent to 60 mg andrographolide, plasma T 0–24 h, n = 12, mean ± SD): 98.6 ± 40.3 ng/mL
- AUC(0-inf) [1, 4]: 674 ± 274 ng·h/mL
- AUC(0–24h) [1, 4]: 674 ± 274 ng·h/mL
- Cl/F [1, 4]: 18.3 ± 6 mL/min/kg
- MRT [1, 4]: 4.1 ± 0.65 h
- Vd/F [1, 4]: 2.0 ± 0.69 L/kg
- Half life [1, 10]: 1.2[0.06] h
- Tmax [1, 10]: 1.5[0.25] h
- Cmax ([1]; single oral dose equivalent to 120 mg andrographolide, plasma T 0–24 h, n = 11, mean ± SD): 211 ± 138 ng/mL
- Cumulative urine [2, 3]: 70.6 ± 27.6 µg
- Cumulative urine [2, 4]: 159 ± 56.8 µg
SMILES: C=C1CCC2C(C)(CO)C(O)CCC2(C)C1C=CC1=CCOC1=O (stereo not shown) [14-Deoxy-11,12-didehydroandrographolide, 14-deoxy-11, 12-didehydroandrographolide]
